Measurements from patent US10357477B2, “Anticancer compounds” (REGENTS OF THE UNIVERSITY OF MINNESOTA, priority 2016, dated 2019).
≈ marks a conversion by molar mass, not a printed value.

Experiments:
[1] = system: MCF10A cells (normal human mammary cells); assay: Cell viability assay (MTT) in MCF10A cells; format: cell-based; details: MCF-10A, 72 h
Protocol: MCF10A cells are maintained in minimum essential medium (MEM) (Invitrogen 11095) supplemented with 10% FBS (Invitrogen 16000), 1% 10× non-essential amino acids (NEAA) (Invitrogen 11140), 1% Penicillin/Streptomycin (Invitrogen 15140), 1% GlutaMAX (Invitrogen 35050-061), 20 ng/mL EGF, […] hydrocortisone, 100 ng/mL cholera toxin, 10 μg/mL insulin.
Cells were plated in 96-well plates at 25×10^4 cells/ml. After 24 hours, compounds were added at 9, 3× dilutions in triplicate from 100 uM final concentration in the appropriate growth media. Plates were incubated for 72 hours at 37° C. in a 5% CO2/95% air humidified atmosphere after which time the media was removed and MTT was added in RPMI phenol red free media. The MTT was removed after 3 hours and formazan crystals were solubilized with 200 μL of isopropanol. Plates were read on a Molecular Devices SpectraMax i3 spectrophotometer at 570 nm for formazan and 690 nm for background subtraction. EC50 values were calculated by fitting the data in GraphPad Prism software.

[2] = Plasma stability assay, mouse plasma; format: in vitro ADME; details: 37° C.
Protocol: (§1) The plasma stability assay was performed in triplicate by incubating a compound in normal mouse and human plasma at 37° C. At 0, 1, 3, 6, and 24 h, aliquots of the plasma mixture were taken and quenched with 3 volumes of acetonitrile containing an appropriate internal standard. The samples were then vortexed and centrifuged at 14,000 rpm for 5 min. The supernatants were collected and analyzed by LC-MS/MS to determine the remaining percentage at various time points.
(§2) Quantification and analysis of compounds in biological samples were carried out on an AB Sciex QTrap 5500 mass spectrometer coupled with an Agilent 1260 Infinity HPLC. The chromatographic separation of compounds was achieved using a Phenomenex Kinetex C18 column (50×2.1 mm, 2.6 μm), and MS/MS analysis was conducted using an ESI ion source with MRM detection. The MS/MS detection parameters including declustering potential (DP), entrance potential (EP), collision energy (CE), and collision cell exit potential (CXP) were optimized for each compound.

[3] = Plasma stability assay, human plasma; format: in vitro ADME; details: 37° C.
Protocol: as §1, §2

[4] = Microsomal stability assay, mouse liver microsomes; format: in vitro ADME; details: pH 7.4; mouse liver microsomes 0.5 mg/mL, 1 mM NADPH, 1 μM compound; read-out: Microsomal Stability t1/2 Mouse
Protocol: (§3) The in vitro microsomal stability assay was conducted in triplicate in mouse and human liver microsomal systems. In a typical incubation, a compound (typically 1 μM final concentration) was spiked into the reaction mixture containing 0.5 mg/mL of liver microsomal protein and 1 mM of NADPH in 0.1 M potassium phosphate buffer (pH 7.4) at 37° C. At various time points, 1 volume of reaction aliquot was taken and quenched with 3 volumes of acetonitrile with an appropriate internal standard. The samples were then vortexed and centrifuged at 14,000 rpm for 5 min. The supernatants were collected and analyzed by LC-MS/MS to determine the in vitro metabolic half-life (t1/2) and intrinsic clearance (CLint). Verapamil was used as a positive control.
as §2

[5] = Microsomal stability assay, human liver microsomes; format: in vitro ADME; details: pH 7.4; human liver microsomes 0.5 mg/mL, 1 mM NADPH, 1 μM compound; read-out: Microsomal Stability t1/2 Human
Protocol: as §3, §2

[6] = Thermodynamic solubility assay; format: physicochemical; details: aqueous buffer, thermodynamic from solid, DPBS pH=7.4, 48 h, ambient temperature
Protocol: Briefly, a saturated solution was made by adding DPBS to the solid compound. The mixture was shaken at 200 rpm for 48 h in a MaxQ 6000 orbital shaker at ambient temperature to allow equilibrium between the solid and dissolved compound. The suspension was then filtered through a 0.45 μm PVDF syringe filter and the filtrate was collected for analysis using UV spectrometry (SpectraMax M5e, Molecular Devices) at λ=240 nm.

[7] = Caco-2 permeability assay; format: in vitro ADME; details: human, pH 7.4
Protocol: Cell Culture. The human colon adenocarcinoma cell line Caco-2 was purchased from ATCC (American Type Culture Collection, Manassas, Va.), and was cultured in a humidified atmosphere of 5% CO2 at 37° C. Caco-2 cells were cultured in DMEM with 10% FBS, 1% NEAA, 1% GlutaMax and 1% penicillin and streptomycin solution. The culture medium was changed every other day during cell growth and differentiation. On achieving 80-90% confluence, the cells were rinsed with pre-warm DPBS (pH 7.4) and split using trypsin. The cells were then seeded on membranes of Millipore Millicell-24 cell culture device. The transepithelial electrical resistance (TEER) were assessed to reflect membrane integrity using a Millicells® ERS-2 (Millipore, USA). The Caco-2 cell monolayers were used for transport experiments on day 21 post-seeding with TEER values >500 Ω·cm2. Bidirectional Transport Experiments. Before the transport experiments, the cell monolayer was washed three times with HBSS. Then, the plates were incubated in fresh permeability assay buffer (HBSS containing 10 mM glucose and 20 mM HEPES, pH 7.4) at 37° C. The experiments were conducted by spiking test compounds to either the apical (AP, 0.4 mL) or basolateral side (BL, 0.8 mL), while the receiving chamber contained the corresponding volume of pre-warmed permeability assay buffer. Every experiment was repeated in duplicate, and the plates were incubated in an orbital shaker at 37° C., 50 rpm/min. To assess the drug transport, at the incubation time of 20, 40, 60 and 80 min, aliquot was removed and was immediately replenished with an equal volume of permeability assay buffer. The samples were then subjected to LC/MS/MS analysis. The apparent permeability coefficient was indicated by the absorption rate constant Papp. It could be calculated as PBA (measured in BL to AP direction) or PAB (measured in AP to BL direction), using the equation of Papp=(dQ/dt)/(A×C0). dQ/dt is the rate at which the compound appears in the receiver chamber (nmol/s), A is the surface area of the filter membrane (0.7 cm2) and C0 is the initial concentration in the donor chamber (μM). Efflux ratio (ER) was calculated by the equation of ER=PBA/PAB, where PBA is the Papp value measured in BL to AP direction, and PAB is the Papp value measured in AP to BL direction.

CNC(=O)c1cccc(Cn2nc(C)c(NC(=O)c3ccc(COc4ccc(C(F)(F)F)cc4)cc3)c2C)c1 [Compound D9c, 3-((3,5-Dimethyl-4-(4-((4-(trifluoromethyl)phenoxy)-methyl)benzamido)-1H-pyrazol-1-yl)methyl)-N-methylbenzamide]
EC50 [1]: 6.7 µM | Plasma Stability (% remaining, 6 h/24 h) Mouse ([2]; 6 h): 91% | Plasma Stability (% remaining, 6 h/24 h) Mouse ([2]; 24 h): 77% | Plasma Stability (% remaining, 6 h/24 h) Human ([3]; 6 h): 99% | Plasma Stability (% remaining, 6 h/24 h) Human ([3]; 24 h): 100% | half-life at 1 μM [4]: 60 min | half-life at 1 μM [5]: 34 min | solubility at 48 h [6]: 67.3 ± 5.2 µM (≈ 36.1 µg/mL) | Papp A→B at 80 min ([7]; apical to basolateral): 8.26 ×10⁻⁶ cm/s | Papp B→A at 80 min ([7]; basolateral to apical): 19.3 ×10⁻⁶ cm/s
